Results reported in patent US9120835B2, “Phosphoric acid ester derivatives” (Daiichi Sankyo Company Limited, priority 2011, dated 2015).

What was measured:
S1P lyase = target: T1, S1P lyase (Rattus norvegicus, UniProt Q8CHN6); experiment: S1P lyase inhibitory ability in rat (thymus gland extract after oral administration); type: in vivo; details: thymus gland extract of orally dosed rats, [3H]dhS1P substrate, 37° C. for 1 hour
T1 construct: The excised thymus gland was crushed; from tissue; host or cells: thymus gland of male LEW/Crj rats (extract supernatant)
T1 sequence (Q8CHN6 1-568): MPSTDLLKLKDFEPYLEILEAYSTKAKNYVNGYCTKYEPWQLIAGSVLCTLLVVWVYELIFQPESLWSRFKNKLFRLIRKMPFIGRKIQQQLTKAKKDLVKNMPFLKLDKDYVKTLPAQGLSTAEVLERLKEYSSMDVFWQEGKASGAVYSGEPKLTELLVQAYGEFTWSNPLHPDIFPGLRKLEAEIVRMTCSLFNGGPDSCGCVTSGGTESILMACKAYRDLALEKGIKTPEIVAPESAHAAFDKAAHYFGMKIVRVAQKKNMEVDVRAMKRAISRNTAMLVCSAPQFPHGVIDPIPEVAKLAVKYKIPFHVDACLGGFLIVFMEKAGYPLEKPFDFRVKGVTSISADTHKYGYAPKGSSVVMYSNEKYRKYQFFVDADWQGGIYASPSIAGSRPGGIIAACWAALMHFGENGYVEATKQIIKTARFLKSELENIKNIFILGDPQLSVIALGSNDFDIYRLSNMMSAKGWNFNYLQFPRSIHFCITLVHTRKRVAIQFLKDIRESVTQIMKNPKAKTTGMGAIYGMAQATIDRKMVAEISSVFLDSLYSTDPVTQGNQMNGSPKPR
Experimental: Male LEW/Crj rats at 3 or 6 weeks old were purchased from Charles River Laboratory Japan Inc. The rats were acclimatized for a week before the start of experiments. The rats were used for the experiments at 3 or 5 rats per one group. A necessary amount of a compound was weighed and suspended in a 0.5% MC solution by using a mortar and a muddler, or a homogenizer. A liquid for administration was prepared so as to be 5 mL per 1 kg body weight. The prepared solution was administered once by oral gavage. […] The blood was immediately put into a vacuum-sealed blood collection tube coated with an anticoagulant (EDTA-2K) (Nipro Corporation) and mixed. The sample was handled under room temperature condition until measurement. The number of the lymphocytes was measured by using an automatic hemacytometer (ADVIA120, Siemens Healthcare Diagnostics K. K.). […]
The excised thymus gland was crushed by either a method including using zirconia beads in the presence of a homogenize buffer (50 mM HEPES-NaOH (pH=7.4), 0.15 M NaCl, 10% Glycerol, 1 mM EDTA, 1 mM DTT and complete protease inhibitor cocktail (Roche, #4693132)) or a method including chopping up the thymus gland and thereafter using a Potter-Elvehjem homogenizer. […] The protein amount in the supernatant was quantified by the Bradford method, and the supernatant was flash-freezed with liquid nitrogen and then stored at −80° C. […]

[1] = system: lymphocytes in the peripheral blood; experiment: Variation in number of lymphocytes in peripheral blood in rat; type: in vivo; details: male LEW/Crj rats, single oral gavage, suspension in 0.5% MC solution
Experimental: Male LEW/Crj rats at 3 or 6 weeks old were purchased from Charles River Laboratory Japan Inc. The rats were acclimatized for a week before the start of experiments. The rats were used for the experiments at 3 or 5 rats per one group. A necessary amount of a compound was weighed and suspended in a 0.5% MC solution by using a mortar and a muddler, or a homogenizer. A liquid for administration was prepared so as to be 5 mL per 1 kg body weight. The prepared solution was administered once by oral gavage. […] The blood was immediately put into a vacuum-sealed blood collection tube coated with an anticoagulant (EDTA-2K) (Nipro Corporation) and mixed. The sample was handled under room temperature condition until measurement. The number of the lymphocytes was measured by using an automatic hemacytometer (ADVIA120, Siemens Healthcare Diagnostics K. K.). At the time of blood collection, the thymus gland was also excised.

Row | Structure (SMILES) | S1P lyase activity in the thymus gland (S1P lyase) | number of lymphocytes in the peripheral blood [1]
1 | CC(=O)c1nc(COP(=O)(O)O)c[nH]1 [Example 1, Phosphoric acid mono-(2-acetyl-1H-imidazol-4-ylmethyl) ester and phosphoric acid mono-(2-acetyl-3H-imidazol-4-ylmethyl) ester] | decreased SIP lyase activity in the thymus gland | reduced the number of lymphocytes in the peripheral blood
2 | O=P(O)(O)OCc1c[nH]c(-c2ccon2)n1 [Example 4, Phosphoric acid mono-(2-isoxazol-3-yl-1H-imidazol-4-ylmethyl) ester and phosphoric acid mono-(2-isoxazol-3-yl-3H-imidazol-4-ylmethyl) ester] |  | reduced the number of lymphocytes in the peripheral blood
3 | CC(=O)c1nc(COP(=O)(O)O)c(C)[nH]1 [Example 2, Phosphoric acid mono-(2-acetyl-5-methyl-1H-imidazol-4-ylmethyl) ester and phosphoric acid mono-(2-acetyl-5-methyl-3H-imidazol-4-ylmethyl) ester] | decreased SIP lyase activity in the thymus gland | reduced the number of lymphocytes in the peripheral blood
